Results from patent US10053453B2, “Compounds and their use as BACE inhibitors” (AstraZeneca AB, priority 2014, dated 2018).
Structures can show the parent of a compound that is named as a salt. Where two headings read alike, the source gives them in different places.

Key:
SH-SY5Y cells = experiment: sAPPβ release assay; conditions: Homo sapiens, SH-SY5Y
Human BACE1 = biological target: T1, Human BACE1 (Homo sapiens, UniProt P56817); experiment: Diluted TR-FRET assay; assay type: biochemical; conditions: 50 times less enzyme, 6.5 h reaction time at r.t.; read-out: IC50 BACE1 (dil. TR-FRET)
T1 construct: the soluble part of the human β-Secretase1 (AA1-AA460) was cloned using the BACE1(1-460)-(AVT)-Fc-pGEN-IRES-neo mammalian expression vector; AVT linker (C); made in house
T1 sequence (P56817 22-460): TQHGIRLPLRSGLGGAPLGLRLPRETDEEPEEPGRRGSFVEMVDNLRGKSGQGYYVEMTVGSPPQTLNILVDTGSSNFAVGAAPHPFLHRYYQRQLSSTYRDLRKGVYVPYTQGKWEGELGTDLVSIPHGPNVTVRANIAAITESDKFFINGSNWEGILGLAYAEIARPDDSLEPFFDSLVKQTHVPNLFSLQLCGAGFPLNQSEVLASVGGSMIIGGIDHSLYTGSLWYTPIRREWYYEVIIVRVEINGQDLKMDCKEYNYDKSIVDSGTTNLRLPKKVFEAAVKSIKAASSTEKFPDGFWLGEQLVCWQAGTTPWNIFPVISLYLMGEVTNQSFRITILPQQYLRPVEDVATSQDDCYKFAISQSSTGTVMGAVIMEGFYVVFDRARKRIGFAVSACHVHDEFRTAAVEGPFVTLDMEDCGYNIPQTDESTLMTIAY
Protocol: (§1) The β-secretase enzyme used in the TR-FRET was prepared as follows:
(§2) Human BACE1: the cDNA for the soluble part of the human β-Secretase1 (AA1-AA460) was cloned using the BACE1(1-460)-(AVT)-Fc-pGEN-IRES-neo mammalian expression vector. The gene was fused to the Fe domain of IgG1 (affinity tag) and stably cloned into HEK 293 cells. […]
A multidrop Combi was used for the liquid handling. Enzyme (7 μL) was added to the compound plate (containing 0.8 μL of compound in dimethylsulphoxide). The plate was incubated for 10 minutes. […] The reaction was stopped with the addition of Stop solution (5.5 μL, NaOAC, pH 9). Fluorescence was measured on a Pherastar plate reader using HTRF module. […] 5 reference inhibitors with different affinities were used at all screen occasions in dose response.

Human BACE2 = biological target: T2, Human BACE2 (Homo sapiens, UniProt Q9Y5Z0); experiment: TR-FRET assay; assay type: biochemical; conditions: enzyme 2.7 μg/mL, substrate 100 nM, pH4.5
T2 construct: the soluble part of the human β-Secretase2 (AA1-AA473) was cloned using BACE2(1-473)-(AVT)-Fc-pDEST12.2 mammalian expression vector; AVT linker (C); made in house
T2 sequence (Q9Y5Z0 21-473): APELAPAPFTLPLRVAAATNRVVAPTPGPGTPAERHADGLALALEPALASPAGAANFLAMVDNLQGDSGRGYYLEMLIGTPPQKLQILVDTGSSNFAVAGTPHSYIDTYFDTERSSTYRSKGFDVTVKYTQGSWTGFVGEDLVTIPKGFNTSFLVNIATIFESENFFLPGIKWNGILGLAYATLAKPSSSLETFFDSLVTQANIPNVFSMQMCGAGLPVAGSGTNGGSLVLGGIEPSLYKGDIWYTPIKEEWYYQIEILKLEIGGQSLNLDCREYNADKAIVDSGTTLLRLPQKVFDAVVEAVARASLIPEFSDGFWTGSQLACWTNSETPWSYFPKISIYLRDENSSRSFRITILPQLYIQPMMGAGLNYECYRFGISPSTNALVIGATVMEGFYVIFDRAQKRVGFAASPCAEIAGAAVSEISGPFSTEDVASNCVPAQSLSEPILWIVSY
Protocol: as §1, §2
A multidrop Combi was used for the liquid handling. Enzyme (7 μL) was added to the compound plate (containing 0.8 μL of compound in dimethylsulphoxide). The plate was incubated for 10 minutes. Substrate (8 μL) was then added, and the reaction proceeded for 17 minutes at r.t. The reaction was stopped with the addition of Stop solution (5.5 μL, NaOAC, pH 9). Fluorescence was measured on a Pherastar plate reader using HTRF module. […] 5 reference inhibitors with different affinities were used at all screen occasions in dose response.

[1] = read-out: IC50 Cell (sAPPβ release, nM), SH-SY5Y cells, compounds incubated 16-17 h
[2] = read-out: IC50 Cell (sAPPβ release, nM)

SMILES	IC50 (SH-SY5Y cells; [1]) [nM]	IC50 (Human BACE1) [nM]	IC50 (Human BACE2) [nM]	IC50 (SH-SY5Y cells; [2]) [nM]
[2H]C1([2H])OC(N)=NC12c1cc(/C=N/OCC)ccc1C[C@]21CC[C@@H](OC)CC1 (stereo partly drawn) [Compound 56, (E)-2″-amino-4-methoxy-3′H,5″H-dispiro[cyclohexane-1,2′-indene-1′,4″-oxazole]-5″,5″-d2-6′-carbaldehyde O-ethyl oxime]	57	1630	3240	
CO[C@H]1CC[C@]2(CC1)Cc1ccccc1C21COC(N)=N1 (stereo partly drawn) [Compound 64, (1r,4r)-4-methoxy-3′H,5″H-dispiro[cyclohexane-1,2′-indene-1′,4″-oxazol]-2″-amine]	307	> 5000	> 5000	
COc1cc(C#N)cc(-c2ccc3c(c2)C2(COC(N)=N2)C(C2CCOCC2)C3)c1 (stereo not drawn) [Compound 91, 3-(2′-Amino-2-(tetrahydro-2H-pyran-4-yl)-2,3-dihydro-5′H-spiro[indene-1,4′-oxazol]-6-yl)-5-methoxybenzonitrile]	331	4660	701	
[2H]C1([2H])CC2(N=C(N)O1)c1cc(-c3cncnc3)ccc1C[C@]21CC[C@@H](OC)CC1 (stereo partly drawn) [Compound 82, (1r,4r)-4-methoxy-6′-(pyrimidin-5-yl)-5″,6″-dihydro-3′H-dispiro[cyclohexane-1,2′-indene-1′,4″-[1,3]oxazin]-6″,6″-d2-2″-amine]	23	138	1790	
NC1=NC2(CO1)c1cc(-c3cncnc3)ccc1CC2C1CCOCC1 (stereo not drawn) [Compound 94, 6-(pyrimidin-5-yl)-2-(tetrahydro-2H-pyran-4-yl)-2,3-dihydro-5′H-spiro[indene-1,4′-oxazol]-2′-amine]	331	4660	701	
[2H]C1([2H])OC(N)=NC12c1cc(/C=N/OCCC)ccc1C[C@]21CC[C@@H](OC)CC1 (stereo partly drawn) [Compound 53, (E)-2″-amino-4-methoxy-3′H,5″H-dispiro[cyclohexane-1,2′-indene-1′,4″-oxazole]-5″,5″-d2-6′-carbaldehyde O-propyl oxime]	24.8	665	652	
CO[C@H]1CC[C@]2(CC1)Cc1ccc(CCC(C)C)cc1C21COC(N)=N1 (stereo partly drawn) [Compound 51, (1r,4r)-6′-isopentyl-4-methoxy-3′H,5″H-dispiro[cyclohexane-1,2′-indene-1′,4″-oxazol]-2″-amine]	20.6	188	306	
[2H]C1([2H])OC(N)=NC12c1cc(-c3cc(C#N)cc(OC)c3)ccc1CC2(C)C1CCOCC1 (stereo not drawn) [Compound 89, 3-(2′-amino-2-methyl-2-(tetrahydro-2H-pyran-4-yl)-2,3-dihydro-5′H-spiro[indene-1,4′-oxazol]-6-yl-5′,5′-d2)-5-methoxybenzonitrile]	889	> 5000	> 5000	
[2H]C1([2H])OC(N)=N[C@]12c1cc(-c3cncnc3)ccc1C[C@]21CC[C@@H](OC)CC1 [Compound 118, {(1r,1′R,4R)-4-methoxy-6′-(pyrimidin-5-yl)-3′H,5″H-dispiro[cyclohexane-1,2′-indene-1′,4″-oxazol]-5″,5″-d2-2″-amine}]		287		6
CO[C@H]1CC[C@]2(CC1)Cc1ccc(-c3cncnc3)cc1C21COC(N)=N1 (stereo partly drawn) [Compound 50, (1r,4r)-4-methoxy-6′-(pyrimidin-5-yl)-3′H,5″H-dispiro[cyclohexane-1,2′-indene-1′,4″-oxazol]-2″-amine]		579		16
CO[C@H]1CC[C@]2(CC1)Cc1ccc(-c3cncnc3)cc1[C@@]21COC(N)=N1 [Compound 47, (1r,1′R,4R)-4-methoxy-6′-(pyrimidin-5-yl)-3′H,5″H-dispiro[cyclohexane-1,2′-indene-1′,4″-oxazol]-2″-amine]		152		9.1

Further compounds by falling IC50 (SH-SY5Y cells; [1]), results first:

IC50 (SH-SY5Y cells; [1]) [nM]	IC50 (Human BACE1) [nM]	IC50 (Human BACE2) [nM]	SMILES	IC50 (SH-SY5Y cells; [2]) [nM]
13	294	1090	[2H]C1([2H])OC(N)=N[C@]12c1cc(C#N)ccc1C[C@]21CC[C@@H](OC)[C@H](C)C1 [Compound 119, {(1R,1′R,3R,4R)-6′-cyano-4-methoxy-3-methyl-3′H,5″H-dispiro[cyclohexane-1,2′-indene-1′,4″-oxazol]-5″,5″-d2-2″-amine}]	
8	770	1840	[2H]C1([2H])OC(N)=N[C@]12c1cc(-c3ccccn3)ccc1C[C@@]21CC[C@H](OC)[C@@H](C)C1 [Compound 114, {(1S,1′R,3S,4S)-4-methoxy-3-methyl-6′-(pyridin-2-yl)-3′H,5″H-dispiro[cyclohexane-1,2′-indene-1′,4″-oxazol]-5″,5″-d2-2″-amine}]	
5.3	239	144	[2H]C1([2H])OC(N)=N[C@]12c1cc(-c3cncc(C4CC4)c3)ccc1C[C@]21CC[C@@H](OC)[C@H](C)C1 [Compound 1, (1R,1′R,3R,4R)-6′-(5-cyclopropylpyridin-3-yl)-4-methoxy-3-methyl-3′H,5″H-dispiro[cyclohexane-1,2′-indene-1′,4″-oxazol]-5″,5″-d2-2″-amine formate Salt]	
4.3	166	315	CO[C@H]1CC[C@]2(CC1)Cc1ccc(-c3cncc(C#N)c3)cc1[C@@]21COC(N)=N1 [Compound 38, 5-((1r,1′R,4R)-2″-amino-4-methoxy-3′H,5″H-dispiro[cyclohexane-1,2′-indene-1′,4″-oxazol]-6′-yl)nicotinonitrile]	
2.8	49	80	[2H]C([2H])([2H])O[C@@H]1CC[C@]2(Cc3ccc(-c4cc(Cl)cnc4F)cc3[C@]23N=C(N)OC3([2H])[2H])C[C@H]1C [Compound 106, {(1R,1′R,3R,4R)-4-(methoxy-d3)-3-methyl-6′-(2-fluoro-5-chloropyridin-3-yl)-3′H,5″H-dispiro[cyclohexane-1,2′-indene-1′,4″-oxazol]-5″,5″-d2-2″-amine}]	
2.6	19.6	78.4	[2H]C1([2H])OC(N)=N[C@]12c1cc(-c3cncc(C(F)(F)F)c3)ccc1C[C@@]21CC[C@H](OC)[C@@H](C)C1 [Compound 26]	
1.6	67	255	[2H]C1([2H])OC(N)=N[C@]12c1cc(-c3cncc(C)c3)ccc1C[C@@]21CC[C@H](OC)[C@@H](C)C1 [Compound 28]	
1.6	67	256	[2H]C1([2H])OC(N)=NC12c1cc(-c3cncc(C)c3)ccc1C[C@@]21CC[C@H](OC)[C@@H](C)C1 (stereo partly drawn) [Compound 21, (1S,3S,4S)-4-methoxy-3-methyl-6′-(5-methylpyridin-3-yl)-3′H,5″H-dispiro[cyclohexane-1,2′-indene-1′,4″-oxazol]-5″,5″-d2-2″-amine]	
1.5	7.3	21.4	[2H]C1([2H])OC(N)=N[C@]12c1cc(-c3cc(C#N)cc(OC)c3)ccc1C[C@@]21CC[C@H](OC)[C@@H](C)C1 [Compound 23, 3-((1S,1′R,3S,4S)-2″-amino-4-methoxy-3-methyl-3′H,5″H-dispiro[cyclohexane-1,2′-indene-1′,4″-oxazol]-6′-yl-5″,5″-d2)-5-methoxybenzonitrile]	
1.5	56	58	[2H]C([2H])([2H])O[C@@H]1CC[C@]2(Cc3ccc(-c4cncc(C#N)c4)cc3[C@]23N=C(N)OC3([2H])[2H])C[C@H]1C [Compound 108, {(1R,1′R,3R,4R)-4-(methoxy-d3)-3-methyl-6′-(5-cyanopyridin-3-yl)-3′H,5″H-dispiro[cyclohexane-1,2′-indene-1′,4″-oxazol]-5″,5″-d2-2″-amine}]	
0.4	13	71	[2H]C([2H])([2H])O[C@H]1CC[C@@]2(Cc3ccc(-c4cncc(C#N)c4)cc3[C@]23N=C(N)OC3([2H])[2H])C[C@@H]1C [Compound 105, {(1S,1′R,3S,4S)-6′-(5-cyanopyridin-3-yl)-4-(methoxy-d3)-3-methyl-3′H,5″H-dispiro[cyclohexane-1,2′-indene-1′,4″-oxazol]-5″,5″-d2-2″-amine}]	
